# Values quoted from earlier work in patent EP1586313A1, “Pharmaceutical composition with metoclopramide and process for its preparation” (The Jordanian Pharmaceutical Manufacturing Co. Ltd., priority 2004, dated 2005).
# Details: reportedly
smiles,measurement,value
"CCN(CC)CCNC(=O)c1cc(Cl)c(N)cc1OC.Cl.O [metoclopramide, 4-amino-5-chloro-N-(2-diethylaminoethyl)-2-methoxybenzamide hydrochloride monohydrate]",peak plasma metoclopramide concentrations associated with metoclopramide induced akathisia,greater than 120 ng/ml
